Experimental data reported in patent publication US11866429B2, “Heteroaryl-biphenyl amines for the treatment of PD-L1 diseases” (CHEMOCENTRYX, INC., priority 2019, dated 2024).

Each compound was assayed against human PD-L1 (Homo sapiens (Human), UniProt Q9NZQ7) (assay: Enzyme-Linked Immunosorbent Assay (ELISA), PD-1/PD-L1 binding). Conditions: plates coated with human PD-L1; Human PD-1 and biotin added; absorbance at 450 nm.
Description: 96 Well plates were coated with 1 μg/mL of human PD-L1 (obtained from R&D) in PBS overnight at 4° C. The wells were then blocked with 2% BSA in PBS (W/V) with 0.05% TWEEN-20 for 1 hour at 37° C. The plates were washed 3 times with PBS/0.05% TWEEN-20 and the compounds were serial diluted (1:5) in dilution medium and added to the ELISA plates. Human PD-1 and biotin 0.3 μg/mL (ACRO Biosystems) were added and incubated for 1 hour at 37° C. then washed 3 times with PBS/0.05% TWEEN-20. A second block was performed with 2% BSA in PBS (W/V)/0.05% TWEEN-20 for 10 min at 37° C. and the plates were washed 3 times with PBS/0.05% TWEEN-20. Streptavidin-HRP was added for 1 hour at 37° C. then the plates were washed 3 times with PBS/0.05% TWEEN-20. TMB substrate was added and reacted for 20 min at 37° C. A stop solution (2 N aqueous […]) was added. The absorbance was read at 450 nm using a micro-plate spectrophotometer.

human PD-L1, sequence (Q9NZQ7 19-239): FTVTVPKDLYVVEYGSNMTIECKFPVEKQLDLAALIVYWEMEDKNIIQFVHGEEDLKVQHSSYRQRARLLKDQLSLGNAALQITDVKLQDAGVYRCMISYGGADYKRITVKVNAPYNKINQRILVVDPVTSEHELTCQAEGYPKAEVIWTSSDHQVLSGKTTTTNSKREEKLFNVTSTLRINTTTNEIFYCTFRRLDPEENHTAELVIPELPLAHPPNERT

SMILES | IC50 [nM]
COc1nc(-c2cccc(-c3cccc(Nc4nc(C)nc5cccnc45)c3C)c2Cl)ccc1CNC(C)C [Compound 1.029] | < 10
COc1nc(-c2cccc(-c3cccc(Nc4nc(C)nc5cccnc45)c3C)c2Cl)ccc1CN1CC[C@@](C)(C(=O)O)C1 [Compound 1.033] | < 10
COc1nc(-c2cccc(-c3cccc(Nc4nc(C)nc5cccnc45)c3C)c2Cl)ccc1CN1CC[C@@](C)(O)C1 [Compound 1.034] | < 10
COc1nc(-c2cccc(-c3cccc(Nc4nc(C)nc5cccnc45)c3C)c2Cl)ccc1CNC[C@@H](O)CC(=O)O [Compound 1.035] | < 10
COc1nc(-c2cccc(-c3cccc(Nc4nc(C)nc5cccnc45)c3C)c2Cl)ccc1CN1CCCC[C@H]1C(=O)O [Compound 1.036] | < 10
COc1nc(-c2cccc(-c3cccc(Nc4nc(C)nc5cccnc45)c3C)c2Cl)ccc1CN1CC2(CCNC2=O)C1 [Compound 1.037] | < 10
CNCc1ccc(-c2cccc(-c3cccc(Nc4nc(C)nc5cccnc45)c3C)c2Cl)nc1OC [Compound 1.038] | < 10
COc1nc(-c2cccc(-c3cccc(Nc4nc(C)nc5cccnc45)c3C)c2Cl)ccc1CN1CC[C@@H](C(=O)O)C1 [Compound 1.044] | < 10
COc1nc(-c2cccc(-c3cccc(Nc4nc(C)nc5cccnc45)c3C)c2Cl)ccc1CN[C@H]1CCOC[C@H]1O [Compound 1.047] | < 10
COc1nc(-c2cccc(-c3cccc(Nc4nc(C)nc5cccnc45)c3C)c2Cl)ccc1CNCC(C)(C)CO [Compound 1.051] | < 10
COc1nc(-c2cccc(-c3cccc(Nc4nc(C)nc5cccnc45)c3C)c2Cl)ccc1CN[C@@H]1CCC(=O)NC1 [Compound 1.054] | < 10
COc1nc(-c2cccc(-c3cccc(Nc4nc(C)nc5cccnc45)c3C)c2Cl)ccc1CN[C@@H]1CNC(=O)C1 [Compound 1.055] | < 10
COc1nc(-c2cccc(-c3cccc(Nc4nc(C)nc5cccnc45)c3C)c2Cl)ccc1CNCCO [Compound 1.057] | < 10
COc1nc(-c2cccc(-c3cccc(Nc4nc(C)nc5cccnc45)c3C)c2Cl)ccc1CNCC(C)(C)O [Compound 1.061] | < 10
COc1nc(-c2cccc(-c3cccc(Nc4nc(C)nc5cccnc45)c3C)c2Cl)ccc1CNC(CO)(CO)CO [Compound 1.062] | < 10
COc1nc(-c2cccc(-c3cccc(Nc4nc(C)nc5cccnc45)c3C)c2Cl)ccc1CN1CCC(C)(O)CC1 [Compound 1.063] | < 10
COc1nc(-c2cccc(-c3cccc(Nc4nc(C(C)C)nc5cccnc45)c3C)c2Cl)ccc1CNC[C@@H]1CCC(=O)N1 [Compound 1.068] | < 10
COc1nc(-c2cccc(-c3cccc(Nc4nc(C(F)(F)F)nc5cccnc45)c3C)c2Cl)ccc1CNC[C@@H]1CCC(=O)N1 [Compound 1.070] | < 10
COc1nc(-c2cccc(-c3cccc(Nc4ncnc5cccnc45)c3Cl)c2Cl)ccc1CNC[C@@H]1CCC(=O)N1 [Compound 1.071] | < 10
COc1nc(-c2cccc(-c3cccc(Nc4nc(C)nc5cccnc45)c3C)c2Cl)ccc1CNC[C@@H]1CCC(=O)N1 [Compound 1.073] | < 10
COc1nc(-c2cccc(-c3cccc(Nc4nc(C)nc5cccnc45)c3Cl)c2Cl)ccc1CNC[C@@H]1CCC(=O)N1 [Compound 1.074] | < 10
COc1nc(-c2cccc(-c3cccc(Nc4nccc5nccnc45)c3C)c2Cl)ccc1CN1CC(O)C1 [Compound 1.077] | < 10
COc1nc(-c2cccc(-c3cccc(Nc4nccc5nccnc45)c3Cl)c2Cl)ccc1CN1CC(C(=O)O)C1 [Compound 1.082] | < 10
COc1nc(-c2cccc(-c3cccc(Nc4nccc5nccnc45)c3Cl)c2Cl)ccc1CNC[C@@H]1CCC(=O)N1 [Compound 1.084] | < 10

Results, then the compound that gave them:

IC50 [nM] | SMILES
< 10 | COc1nc(-c2cccc(-c3cccc(Nc4nc(C)nc5cccnc45)c3C)c2Cl)ccc1CNC[C@H](O)CO [Compound 1.027]
< 10 | COc1nc(-c2cccc(-c3cccc(Nc4nc(C)nc5cccnc45)c3C)c2Cl)ccc1CNC(C)(C)C(=O)O [Compound 1.030]
< 10 | COc1nc(-c2cccc(-c3cccc(Nc4nc(C)nc5cccnc45)c3C)c2Cl)ccc1CNCC(=O)O [Compound 1.031]
< 10 | COc1nc(-c2cccc(-c3cccc(Nc4nc(C)nc5cccnc45)c3C)c2Cl)ccc1CNCCn1ccnc1 [Compound 1.032]
< 10 | COc1nc(-c2cccc(-c3cccc(Nc4nc(C)nc5cccnc45)c3C)c2Cl)ccc1CN1CC[C@@H](O)C1 [Compound 1.040]
< 10 | COc1nc(-c2cccc(-c3cccc(Nc4nc(C)nc5cccnc45)c3C)c2Cl)ccc1CNCC(N)=O [Compound 1.041]
< 10 | COc1nc(-c2cccc(-c3cccc(Nc4nc(C)nc5cccnc45)c3C)c2Cl)ccc1CN(C)[C@@H]1CCOC[C@@H]1O [Compound 1.042]
< 10 | COc1nc(-c2cccc(-c3cccc(Nc4nc(C)nc5cccnc45)c3C)c2Cl)ccc1CN1CCC(O)CC1 [Compound 1.043]
< 10 | CCc1nc(-c2cccc(-c3cccc(Nc4nc(C)nc5cccnc45)c3C)c2Cl)ccc1CN[C@@H]1CCOC[C@@H]1O [Compound 1.045]
< 10 | CCc1nc(-c2cccc(-c3cccc(Nc4nc(C)nc5cccnc45)c3C)c2Cl)ccc1CNC[C@@H]1CCC(=O)N1 [Compound 1.046]
< 10 | Cc1nc(Nc2cccc(-c3cccc(-c4ccc(CNC[C@@H]5CCC(=O)N5)c(C)n4)c3Cl)c2C)c2ncccc2n1 [Compound 1.048]
< 10 | COc1nc(-c2cccc(-c3cccc(Nc4nc(C)nc5cccnc45)c3C)c2Cl)ccc1CN1CCOCC1 [Compound 1.049]
< 10 | COc1nc(-c2cccc(-c3cccc(Nc4nc(C)nc5cccnc45)c3C)c2Cl)ccc1CNC(C)(C)CCO [Compound 1.050]
< 10 | COc1nc(-c2cccc(-c3cccc(Nc4nc(C)nc5cccnc45)c3C)c2Cl)ccc1CNC1CCOCC1 [Compound 1.052]
< 10 | COc1nc(-c2cccc(-c3cccc(Nc4nc(C)nc5cccnc45)c3C)c2Cl)ccc1CN1CC2(CCC(=O)N2)C1 [Compound 1.053]
< 10 | COc1nc(-c2cccc(-c3cccc(Nc4nc(C)nc5cccnc45)c3C)c2Cl)ccc1CNC(CO)CO [Compound 1.056]

IC50 [nM] | SMILES
< 10 | COc1nc(-c2cccc(-c3cccc(Nc4nc(C)nc5cccnc45)c3C)c2Cl)ccc1CN1CC(O)C1 [Compound 1.058]
< 10 | COc1nc(-c2cccc(-c3cccc(Nc4nc(C)nc5cccnc45)c3C)c2Cl)ccc1CN[C@H]1CCOC1 [Compound 1.059]
< 10 | COc1nc(-c2cccc(-c3cccc(Nc4nc(C)nc5cccnc45)c3C)c2Cl)ccc1CNCC(C)(C)C(=O)O [Compound 1.060]
< 10 | COc1nc(-c2cccc(-c3cccc(Nc4nc(C)nc5cccnc45)c3C)c2Cl)ccc1CN[C@@H]1CCOC[C@@H]1O [Compound 1.064]
< 10 | COc1nc(-c2cccc(-c3cccc(Nc4nc(C)nc5cccnc45)c3C)c2Cl)ccc1CN1CC(C)(C(=O)O)C1 [Compound 1.065]
< 10 | COc1nc(-c2cccc(-c3cccc(Nc4nc(C)nc5cccnc45)c3C)c2Cl)ccc1CN1CC(C(=O)O)C1 [Compound 1.066]
10 to 1000 | Cc1cc2nccnc2c(Nc2cccc(-c3cccc(-c4ccc(CNC[C@@H]5CCC(=O)N5)c(O)n4)c3Cl)c2C)n1 [Compound 1.067]
< 10 | COc1nc(-c2cccc(-c3cccc(Nc4nc(C(F)(F)F)nc5cccnc45)c3C)c2Cl)ccc1CN1CC(C)(C(=O)O)C1 [Compound 1.069]
< 10 | COc1nc(-c2cccc(-c3cccc(Nc4nc(C)nc5cccnc45)c3Cl)c2Cl)ccc1CN1CC(C)(C(=O)O)C1 [Compound 1.072]
< 10 | COc1nc(-c2cccc(-c3cccc(Nc4nccc5nccnc45)c3C)c2Cl)ccc1CN[C@@H]1CCOC[C@@H]1O [Compound 1.075]
< 10 | COc1nc(-c2cccc(-c3cccc(Nc4nccc5nccnc45)c3C)c2Cl)ccc1CN1CC(C(=O)O)C1 [Compound 1.076]
< 10 | COc1nc(-c2cccc(-c3cccc(Nc4nccc5nccnc45)c3C)c2Cl)ccc1CNC[C@@H]1CCC(=O)N1 [Compound 1.078]
< 10 | COc1nc(-c2cccc(-c3cccc(Nc4nccc5nccnc45)c3Cl)c2Cl)ccc1CN1CC(O)C1 [Compound 1.079]
< 10 | CCc1nc(-c2cccc(-c3cccc(Nc4nccc5nccnc45)c3Cl)c2Cl)cnc1CNC[C@@H]1CCC(=O)N1 [Compound 1.080]
< 10 | COc1nc(-c2cccc(-c3cccc(Nc4nccc5nccnc45)c3Cl)c2Cl)ccc1CN[C@@H]1CNC(=O)C1 [Compound 1.081]
< 10 | COc1nc(-c2cccc(-c3cccc(Nc4nccc5nccnc45)c3Cl)c2Cl)ccc1CN1CC(C)(C(=O)O)C1 [Compound 1.083]
